Data published in patent US7321046B2, “Analogs of dictyostatin, intermediates therefor and methods of synthesis thereof” (University of Pittsburgh, priority 2002, dated 2008).
Where two headings read alike, the source gives them in different places.

Columns and labels:
[1] = test system: microtubules (tubulin polymer); experiment: Radiolabeled ligand binding assays; settings: for potency relative to 1 in inhibiting the binding of radiolabeled paclitaxel to microtubules: relative to dictyostatin 1
Protocol: The abilities of test agents to inhibit the binding of radiolabeled forms of the microtubule stabilizers paclitaxel, discodermolide and epothilone B from tubulin polymer were determined.
[^3H]Paclitaxel, [^3H]discodermolide and [^14C]epothilone B solutions were prepared as 125 μM stock solutions in 50% DMSO. Radiolabeled compound (final concentration, 4.0 μM) and test agents at final concentrations noted in the text and tables were mixed in 50 μL of 4:1 (v/v) 0.75 M aqueous MSG/DMSO and warmed to 37° C. Meanwhile, a reaction mixture containing 0.75 M MSG, 2.5 μM tubulin, and 25 μM ddGTP was prepared and incubated at 37° C. for 30 min to form microtubuless. A 200 μL aliquot of the microtubule mixture was added to the drug mixtures, and incubation continued for 30 min at 37° C. Reaction mixtures were centrifuged in an Eppendorf 5417C centrifuge at 14,000 rpm for 20 min at room temperature. Radiolabel in the supernatants (100 μL) was determined by scintillation spectrometry.

[2] = test system: human ovarian carcinoma cells (1A9); experiment: Antiproliferative assay (GI50, MTS); type: cell-based; settings: for antiproliferative potency / GI50 values (in words): Table 1 (1A9 and mutant lines)
Protocol: Representative analogs were examined for their antiproliferative activities against human ovarian carcinoma 1A9 cells and their paclitaxel-resistant mutants, 1A9/Ptx10 and 1A9/Ptx22.
[…] Cells were maintained in RPMI medium with 10% FBS in it, plated in tissue culture plates, and allowed to grow for 48-72 h before transferring them into 96-well plates. Cells were allowed to attach and grow for 48 h in 96-well plates after which they were treated with either control (DMSO) or drug in triplicate/quadruplicate. Cells were incubated with the compounds for 72 h. Cells were treated with MTS reagent before reading the plate in a Dynamax plate reader for determining the cell number. The fifty percent growth inhibition values (GI50 values) were calculated for the compounds against all the three cell lines.

[3] = test system: T1, Bovine brain tubulin; experiment: Pelleting assay (tubulin assembly EC50 determination); type: biochemical; settings: for % Tubulin polymerized by 50 μM test agent / EC50: tubulin 10 μM in 0.2 M MSG, 15 min at 20° C.; for EC50: concentration required to polymerize 50% of tubulin, read-out: EC50 (μM) ± SD (N)
T1 construct: Bovine brain tubulin (10 μM) in 0.2 M MSG, 15 min at 20° C
Protocol: Dictyostatin and representative analogs were evaluated in a quantitative assay for their ability to promote tubulin polymerization. […] When the percent polymer formed was determined in the reactions, a comparison of the activities of all the analogs could be made.
The assay was performed under three different reaction conditions following the procedure reported earlier (Gapud et al., 2004). Reaction condition 1 included 0.2 M monosodium glutamate (MSG), 10 μM tubulin, 5% DMSO and varying concentrations of test agents. Reaction condition 2 included 0.8 M MSG, 400 μM GTP, 10 μM tubulin, 5% DMSO, and varying concentrations of test agents. Reaction condition 3 had 0.6 M MSG, 200 μM GTP, and 10 μM tubulin, and 5% DMSO, and varying concentrations of the test agents. The experimental protocol for all the three reaction conditions was the following. The reaction mixtures were incubated at room temperature (20-22° C.) for 15 min and spun for 10 min at 14,000 rpm in an Eppendorf microtube centrifuge. Aliquots of the supernatants were removed and assayed for protein content by the method of Lowry.

[4] = test agent 4 μM, radiolabel 4.0 μM, 37° C.
[5] = Homo sapiens, Ovarian carcinoma cell, 72 h, read-out: GI50 ± S.D., 1A9 parental cells, 72 h incubation

SMILES | potency relative to 1 in inhibiting the binding of radiolabeled paclitaxel to microtubules [1] | Percent inhibition of radiolabel from microtubules, [3H]Paclitaxel [1, 4] | GI50 [2, 5] [nM] | antiproliferative potency / GI50 values (in words) [2] | percent polymer formed (in words) [3] | % Tubulin polymerized by 50 μM test agent [3] [%] | EC50 [3] [µM] | GI50 ([2]; read-out: GI50 ± S.D., 1A9 parental cells, 72 h incubation) [nM] | Percent inhibition of radiolabel from microtubules, [14C]Epothilone B [1, 4] | Percent inhibition of radiolabel from microtubules, [3H]Discodermolide [1, 4]
C=C/C=C\[C@H](C)[C@H](O)[C@@H](C)[C@H](O)CC[C@H](C)C[C@H](C)[C@@H](O)[C@@H](C)/C=C\[C@@H](O)C[C@H](O)[C@H](C)/C=C/C=C\C(=O)OC [Compound 50, (2Z,4E,6R,7S,9S,10Z,12S,13R,14S,16S,19R,20S,21S,22S,23Z)-Methyl-7,9,13,19,21-penta-hydroxy-6,12,14,16,20,22-hexamethylhexacosa-2,4,10,23,25-pentaenoate] | ca. 60% | 42 ± 1 (3) % | 56 ± 16 | mid-nanomolar range | moderate activity | 39 ± 7 | > 50 |  |  | 
C=CC=CC(C)C1OC(=O)C=CC=CC(C)C(O)CC(O)C=CC(C)C(O)C(C)CC(C)CCC(O)C1C [Compound 59, (8S,10S,14R,20S)-Tetrahydroxy-(7R,13S,15S,17S,21s)-pentamethyl-(22S)-((1S)-methylpenta-2,4-dienyl)-oxacyclodocosa-3,5,11-trien-2-one] |  | 7 ± 2 (3) % |  | mid-nanomolar range | moderate activity | 30 ± 2 | > 50 | 21 ± 14 |  | 
C=C/C=C\[C@H](C)[C@H](OC(N)=O)[C@@H](C)[C@H](O)[C@@H](C)C/C(C)=C\[C@H](C)[C@@H](O)[C@@H](C)/C=C\[C@@H](O)C[C@@H]1OC(=O)[C@H](C)[C@@H](O)[C@H]1C [discodermolide, reference compound] |  | 76 ± 6 (4) % | 1.7 ± 1.2 |  |  | 98 ± 5 | 3.6 ± 0.4 |  | 90 ± 1 (3) % | 
C=CC=CC(C)C1OC(=O)C=CC=CC(C)C(O)CC(O)C=CC(C)C(O)C(C)CCCCC(O)C1C [Compound 79, (8S,10S,14R,20R)-Tetrahydroxy-(7R,13S,15S,21S)-tetramethyl-(22S)-((1S)-methylpenta-2,4-dienyl)-oxacyclodocosa-3,5,11-trien-2-one] | ca. 60% | 48 ± 3 (3) % | 0.41 ± 0.52 | essentially equipotent to 1 |  | 91 ± 6 | 14 ± 7 |  |  | 
C=C/C=C\[C@H](C)[C@@H]1OC(=O)/C=C\C=C\[C@@H](C)[C@@H](O)C[C@H](O)/C=C\[C@H](C)[C@H](O)[C@@H](C)C[C@@H](C)CC[C@@H](O)[C@@H]1C [dictyostatin-1, (8S,10S,14R,20R)-Tetrahydroxy-(7R,13S,15S,17S,21S)-pentamethyl-(22S)-((1S)-methylpenta-2,4-dienyl)oxacyclodocosa-3,5,11-trien-2-one, reference compound] |  | 75 ± 5 (3) % | 0.69 ± 0.8 |  |  | 99 ± 4 | 3.1 ± 0.2 |  | 88 ± 1 (3) % | 40 ± 3 (3) %
